Measured values published in patent publication US11753407B2, “Compounds for treating spinal muscular atrophy” (PTC Therapeutics, Inc., priority 2012, dated 2023).

Columns and labels:
[1] = system: SMN2 mRNA in GM03813 SMA patient cells; assay: Endogenous SMN2 mRNA RT-qPCR splicing assay in cultured cells; assay type: cell-based, human; details: Type 1 SMA patient fibroblasts, increasing concentrations, 24 hr, versus vehicle (FIG. 4)
Description: The reverse transcription-quantitative PCR-based (RT-qPCR) assay is used to quantify the levels of the full length and Δ7 SMN2 mRNA in primary cells and cell lines containing the SMN2 gene treated with a test compound.
Protocol. GM03813 SMA patient cells (5,000 cells/well) are seeded in 200 μL of cell culture medium (DMEM plus 10% FBS) in 96-well flat-bottom plates and the plate is immediately swirled to ensure proper dispersal of cells, forming an even monolayer of cells. Cells are allowed to attach for at least 4-6 hrs. Test compounds are serially diluted 3.16-fold in 100% DMSO to generate a 7-point concentration curve. A solution of test compound (1 μL, 200× in DMSO) is added to each test well and 1 μL DMSO is added to each control well. The plate is incubated for 24 hrs in a cell culture incubator (37° C., 5% CO2, 100% relative humidity). The cells are then lysed in Cells-To-Ct lysis buffer and the lysate is stored at −80° C.
SMN2-specific spliced products and GAPDH mRNA are identified using the following primers and probes in Table 5. Primer SMN FL Forward B (SEQ ID NO. 7) hybridizes to a nucleotide sequence in exon 7 (nucleotide 32 to nucleotide 54) and exon 8 (nucleotide 1 to nucleotide 4), primer SMN Δ7 Forward B (SEQ ID NO. 8) hybridizes to a nucleotide sequence in exon 6 (nucleotide 87 to nucleotide 111) and exon 8 (nucleotide 1 to nucleotide 3), primer SMN Reverse B (SEQ ID NO. 9) hybridizes to a nucleotide sequence in exon 8 (nucleotide 39 to nucleotide 62), probe SMN Probe B (SEQ ID NO. 10) hybridizes to a nucleotide sequence in exon 8 (nucleotide 7 to nucleotide 36). These primers and probes hybridize to nucleotide sequences common to human SMN1 and SMN2 mRNA. Since the SMA patient cells used in Example 3 contain only the SMN2 gene, RT-qPCR can quantify only SMN2 full-length and Δ7 mRNA.
The SMN forward and reverse primers are used at final concentrations of 0.4 μM. The SMN probe is used at a final concentration of 0.15 μM. GAPDH primers are used at final concentrations of 0.1 μM and the probe at 0.075 μM. […]
The increase of SMN2 FL and decrease in SMN2 Δ7 mRNA relative to those in cells treated with vehicle control are determined from real-time PCR data using a modified ΔΔCt method (as described in Livak and Schmittgen, Methods, 2001, 25:402-8). The amplification efficiency (E) is calculated from the slope of the amplification curve for SMN2 FL, SMN2 Δ7, and GAPDH individually. The abundances of SMN2 FL, SMN2 Δ7, and GAPDH are then calculated as (1+E)^−Ct, where Ct is the threshold value for each amplicon. […]

[2] = system: neonatal SMA Δ7 homozygous knockout mice; assay: Survival of neonatal Δ7 SMA mice; assay type: in vivo
Description: The change in the number of surviving mice over time is used to determine whether treatment with a test compound improves survival.
Protocol. SMA Δ7 homozygous knockout mice are dosed intraperitoneally (IP) with test compound or vehicle (100% DMSO) QD from PND 3 until the dose regimen is switched to an oral dose BID in 0.5% hydroxypropylmethyl cellulose (HPMC) with 0.1% Tween-80 at a dose 3.16-fold higher than the dose used for IP and later switched to an oral dose QD in 0.5% hydroxypropylmethyl cellulose (HPMC) with 0.1% Tween-80 at a dose 6.32-fold higher than the dose used for IP. The number of surviving mice in each group is recorded every day and plotted as a percent of total number of mice. Tissues of SMA Δ7 and age-matched heterozygous mice are collected for the measurement of Smn protein levels and processed as detailed in Example 10. The total protein normalized Smn protein levels measured in the tissues are plotted as a percent of those in the age-matched heterozygous mice tissues, with the Smn level in heterozygous mice set to 100 percent. The level of Smn protein in the test compound treated mice tissue relative to that in heterozygous mice tissue is indicated as a percent value above each bar in the graph.

Row | Compound | SMN2 FL mRNA [1] | SMN2 Δ7 mRNA [1] | survival ([2]; IP QD PND 3 to PND 30, then orally BID from PND 31 until study end (FIG. 15a)) | survival ([2]; IP QD PND 3 to PND 23, then orally BID from PND 24 until study end (FIG. 15b))
1 | COc1ccc(-c2cc(=O)n3cc(N4CCNCC4)ccc3n2)cc1OC [Cpd 6, 2-(3,4-dimethoxyphenyl)-7-(piperazin-1-yl)-4H-pyrido[1,2-a]pyrimidin-4-one] | progressively more SMN2 FL mRNA | less SMN2 Δ7 mRNA | improved compared to vehicle treated mice | –
2 | Cc1cn2nc(-c3cc(=O)n4cc(N5CCN(C)CC5)ccc4n3)cc2c(C)n1 [Cpd 170, 2-(4,6-dimethylpyrazolo[1,5-a]pyrazin-2-yl)-7-(4-methylpiperazin-1-yl)-4H-pyrido[1,2-a]pyrimidin-4-one] | progressively more SMN2 FL mRNA | less SMN2 Δ7 mRNA | – | improved compared to vehicle treated mice
